Reference: the NIST ThermoML archive (doi:10.1021/acs.jced.9b00442)
± gives the expanded uncertainty stated by the source.

Details: 333.15 K; 100 kPa; Liquid; Concentric cylinders viscometry

| Compound | viscosity [mPa·s] |
| --- | --- |
| CC[N+](CCO)(CCO)CCO.O=S(=O)([N-]S(=O)(=O)C(F)(F)F)C(F)(F)F | 94.7 ± 3.9 |
| CCCC[N+](CCO)(CCO)CCO.O=S(=O)([N-]S(=O)(=O)C(F)(F)F)C(F)(F)F | 106.6 ± 4.4 |
| CC[N+](C)(CCO)CCO.O=S(=O)([N-]S(=O)(=O)C(F)(F)F)C(F)(F)F | 47.3 ± 1.9 |

Same assay, conditions: 333.15 K; 100 kPa; Liquid; Vibrating tube method

| Compound | mass density [kg/m3] |
| --- | --- |
| C[N+](CCO)(CCO)CCO.O=S(=O)([N-]S(=O)(=O)C(F)(F)F)C(F)(F)F | 1535.4 ± 1.2 |
| CC[N+](CCO)(CCO)CCO.O=S(=O)([N-]S(=O)(=O)C(F)(F)F)C(F)(F)F | 1499.2 ± 1.2 |
| CCCC[N+](CCO)(CCO)CCO.O=S(=O)([N-]S(=O)(=O)C(F)(F)F)C(F)(F)F | 1426.3 ± 1.1 |
| CC[N+](C)(CCO)CCO.O=S(=O)([N-]S(=O)(=O)C(F)(F)F)C(F)(F)F | 1484.1 ± 1.2 |

Same assay, conditions: 334.15 K; 100 kPa; Liquid; Vibrating tube method

| Compound | mass density [kg/m3] |
| --- | --- |
| C[N+](CCO)(CCO)CCO.O=S(=O)([N-]S(=O)(=O)C(F)(F)F)C(F)(F)F | 1534.5 ± 1.2 |
| CC[N+](CCO)(CCO)CCO.O=S(=O)([N-]S(=O)(=O)C(F)(F)F)C(F)(F)F | 1498.3 ± 1.2 |
| CCCC[N+](CCO)(CCO)CCO.O=S(=O)([N-]S(=O)(=O)C(F)(F)F)C(F)(F)F | 1425.5 ± 1.1 |
| CC[N+](C)(CCO)CCO.O=S(=O)([N-]S(=O)(=O)C(F)(F)F)C(F)(F)F | 1483.2 ± 1.2 |

Same assay, conditions: 335.16 K; 100 kPa; Liquid; Vibrating tube method

| Compound | mass density [kg/m3] |
| --- | --- |
| C[N+](CCO)(CCO)CCO.O=S(=O)([N-]S(=O)(=O)C(F)(F)F)C(F)(F)F | 1533.6 ± 1.2 |
| CC[N+](CCO)(CCO)CCO.O=S(=O)([N-]S(=O)(=O)C(F)(F)F)C(F)(F)F | 1497.4 ± 1.2 |
| CCCC[N+](CCO)(CCO)CCO.O=S(=O)([N-]S(=O)(=O)C(F)(F)F)C(F)(F)F | 1424.6 ± 1.1 |
| CC[N+](C)(CCO)CCO.O=S(=O)([N-]S(=O)(=O)C(F)(F)F)C(F)(F)F | 1482.3 ± 1.2 |

Same assay, conditions: 336.15 K; 100 kPa; Liquid; Vibrating tube method

| Compound | mass density [kg/m3] |
| --- | --- |
| C[N+](CCO)(CCO)CCO.O=S(=O)([N-]S(=O)(=O)C(F)(F)F)C(F)(F)F | 1532.8 ± 1.2 |
| CC[N+](CCO)(CCO)CCO.O=S(=O)([N-]S(=O)(=O)C(F)(F)F)C(F)(F)F | 1496.6 ± 1.2 |
| CCCC[N+](CCO)(CCO)CCO.O=S(=O)([N-]S(=O)(=O)C(F)(F)F)C(F)(F)F | 1423.8 ± 1.1 |
| CC[N+](C)(CCO)CCO.O=S(=O)([N-]S(=O)(=O)C(F)(F)F)C(F)(F)F | 1481.5 ± 1.2 |

Same assay, conditions: 337.15 K; 100 kPa; Liquid; Vibrating tube method

| Compound | mass density [kg/m3] |
| --- | --- |
| C[N+](CCO)(CCO)CCO.O=S(=O)([N-]S(=O)(=O)C(F)(F)F)C(F)(F)F | 1531.9 ± 1.2 |
| CC[N+](CCO)(CCO)CCO.O=S(=O)([N-]S(=O)(=O)C(F)(F)F)C(F)(F)F | 1495.7 ± 1.2 |
| CCCC[N+](CCO)(CCO)CCO.O=S(=O)([N-]S(=O)(=O)C(F)(F)F)C(F)(F)F | 1422.9 ± 1.1 |
| CC[N+](C)(CCO)CCO.O=S(=O)([N-]S(=O)(=O)C(F)(F)F)C(F)(F)F | 1480.6 ± 1.2 |

Same assay, conditions: 338.15 K; 100 kPa; Liquid; Concentric cylinders viscometry

| Compound | viscosity [mPa·s] |
| --- | --- |
| C[N+](CCO)(CCO)CCO.O=S(=O)([N-]S(=O)(=O)C(F)(F)F)C(F)(F)F | 61.7 ± 2.5 |
| CC[N+](CCO)(CCO)CCO.O=S(=O)([N-]S(=O)(=O)C(F)(F)F)C(F)(F)F | 76.1 ± 3.1 |
| CCCC[N+](CCO)(CCO)CCO.O=S(=O)([N-]S(=O)(=O)C(F)(F)F)C(F)(F)F | 83.5 ± 3.4 |
| CC[N+](C)(CCO)CCO.O=S(=O)([N-]S(=O)(=O)C(F)(F)F)C(F)(F)F | 39.7 ± 1.6 |

Same assay, conditions: 338.15 K; 100 kPa; Liquid; Vibrating tube method

| Compound | mass density [kg/m3] |
| --- | --- |
| C[N+](CCO)(CCO)CCO.O=S(=O)([N-]S(=O)(=O)C(F)(F)F)C(F)(F)F | 1531 ± 1.2 |
| CC[N+](CCO)(CCO)CCO.O=S(=O)([N-]S(=O)(=O)C(F)(F)F)C(F)(F)F | 1494.9 ± 1.2 |
| CCCC[N+](CCO)(CCO)CCO.O=S(=O)([N-]S(=O)(=O)C(F)(F)F)C(F)(F)F | 1422.1 ± 1.1 |
| CC[N+](C)(CCO)CCO.O=S(=O)([N-]S(=O)(=O)C(F)(F)F)C(F)(F)F | 1479.7 ± 1.2 |

Same assay, conditions: 339.15 K; 100 kPa; Liquid; Vibrating tube method

| Compound | mass density [kg/m3] |
| --- | --- |
| C[N+](CCO)(CCO)CCO.O=S(=O)([N-]S(=O)(=O)C(F)(F)F)C(F)(F)F | 1530.1 ± 1.2 |
| CC[N+](CCO)(CCO)CCO.O=S(=O)([N-]S(=O)(=O)C(F)(F)F)C(F)(F)F | 1494 ± 1.2 |
| CCCC[N+](CCO)(CCO)CCO.O=S(=O)([N-]S(=O)(=O)C(F)(F)F)C(F)(F)F | 1421.2 ± 1.1 |
| CC[N+](C)(CCO)CCO.O=S(=O)([N-]S(=O)(=O)C(F)(F)F)C(F)(F)F | 1478.9 ± 1.2 |

Same assay, conditions: 340.15 K; 100 kPa; Liquid; Vibrating tube method

| Compound | mass density [kg/m3] |
| --- | --- |
| C[N+](CCO)(CCO)CCO.O=S(=O)([N-]S(=O)(=O)C(F)(F)F)C(F)(F)F | 1529.2 ± 1.2 |
| CC[N+](CCO)(CCO)CCO.O=S(=O)([N-]S(=O)(=O)C(F)(F)F)C(F)(F)F | 1493.2 ± 1.2 |
| CCCC[N+](CCO)(CCO)CCO.O=S(=O)([N-]S(=O)(=O)C(F)(F)F)C(F)(F)F | 1420.4 ± 1.1 |
| CC[N+](C)(CCO)CCO.O=S(=O)([N-]S(=O)(=O)C(F)(F)F)C(F)(F)F | 1478 ± 1.2 |

Same assay, conditions: 341.15 K; 100 kPa; Liquid; Vibrating tube method

| Compound | mass density [kg/m3] |
| --- | --- |
| C[N+](CCO)(CCO)CCO.O=S(=O)([N-]S(=O)(=O)C(F)(F)F)C(F)(F)F | 1528.4 ± 1.2 |
| CC[N+](CCO)(CCO)CCO.O=S(=O)([N-]S(=O)(=O)C(F)(F)F)C(F)(F)F | 1492.3 ± 1.2 |
| CCCC[N+](CCO)(CCO)CCO.O=S(=O)([N-]S(=O)(=O)C(F)(F)F)C(F)(F)F | 1419.5 ± 1.1 |
| CC[N+](C)(CCO)CCO.O=S(=O)([N-]S(=O)(=O)C(F)(F)F)C(F)(F)F | 1477.1 ± 1.2 |

Same assay, conditions: 342.15 K; 100 kPa; Liquid; Vibrating tube method

| Compound | mass density [kg/m3] |
| --- | --- |
| C[N+](CCO)(CCO)CCO.O=S(=O)([N-]S(=O)(=O)C(F)(F)F)C(F)(F)F | 1527.5 ± 1.2 |
| CC[N+](CCO)(CCO)CCO.O=S(=O)([N-]S(=O)(=O)C(F)(F)F)C(F)(F)F | 1491.4 ± 1.2 |
| CCCC[N+](CCO)(CCO)CCO.O=S(=O)([N-]S(=O)(=O)C(F)(F)F)C(F)(F)F | 1418.7 ± 1.1 |
| CC[N+](C)(CCO)CCO.O=S(=O)([N-]S(=O)(=O)C(F)(F)F)C(F)(F)F | 1476.3 ± 1.2 |

Same assay, conditions: 343.15 K; 100 kPa; Liquid; Concentric cylinders viscometry

| Compound | viscosity [mPa·s] |
| --- | --- |
| C[N+](CCO)(CCO)CCO.O=S(=O)([N-]S(=O)(=O)C(F)(F)F)C(F)(F)F | 50.6 ± 2 |
| CC[N+](CCO)(CCO)CCO.O=S(=O)([N-]S(=O)(=O)C(F)(F)F)C(F)(F)F | 61.6 ± 2.5 |
| CCCC[N+](CCO)(CCO)CCO.O=S(=O)([N-]S(=O)(=O)C(F)(F)F)C(F)(F)F | 66.7 ± 2.7 |
